# Where two headings read alike, the source gives them in different places.
# Assays:
# [1] = tested on: subjects with PAD
# Protocol: The primary objective of this early stage clinical study was to evaluate the safety and tolerability of multiple doses of twice daily 40 mg and 80 mg sodium nitrite compared with placebo over a 10 week treatment period. […] Finally, the relationship between doses, plasma concentration of sodium nitrite, and pharmacodynamic effects were characterized and evaluated. In this study, multiple assessments of biological activity and ambulatory function were made during standardized tests of arterial reactivity and claudication-limited exercise. The pharmacodynamic assessments included: brachial artery flow-mediated vasodilation (FMD), six-minute walk test, selected biomarkers of interest, quality of life questionnaires (WIQ & RAND 36).
# All doses were given as a twice-daily oral dose for 10 weeks. On the day following the 10 week dosing period and completion of efficacy assessments, subjects in each treatment arm entered a 6 day dose-escalation period (dose-doubling). Subjects in the 40 mg sodium nitrite BID group were dose-escalated to 80 mg sodium nitrite BID for 6 days, and subjects in the 80 mg sodium nitrite BID were dose-escalated to 160 mg sodium nitrite BID for 6-days. Placebo subjects doubled the number of placebo capsules taken BID. All study medication was stopped at the end of the 6-day dose-escalation period.
# The following safety parameters were assessed: medical and medication history, concomitant medication usage, physical examination, vital signs, 12-lead ECG, clinical chemistries, CBC, urinalysis, and adverse events. Urine pregnancy testing was completed for women of child-bearing potential who have not been surgically sterilized. Assessment of acute adverse events (i.e., drop in blood pressure, dizziness) was performed after administration of 1st dose for each dose level of sodium nitrite. Dose-limiting toxicity (DLT) was defined as Grade 3 and clinically significant hematological events, particularly MetHb.
# As defined by the International Conference on Harmonisation (ICH), an AE was any untoward medical occurrence in a patient or clinical investigation subject administered an investigational product, whether or not the event was considered related to the investigational product. An AE was therefore any unfavorable and unintended sign (including an abnormal laboratory finding), symptom, or disease (new or exacerbated) temporally associated with the use of the investigational product and was collected starting when IP was administered.
# [2] = tested on: subjects with PAD; details: oral BID for 10 weeks vs placebo
# Protocol: Quality of life was measured by two questionnaires: WIQ and RAND 36. The two questionnaires were administered in the same sequence: WIQ first, followed by the RAND 36. The WIQ was a disease-specific instrument that measures community-based walking. The questionnaire consisted of four subscales (pain severity, distance, speed, and stairs). The WIQ was verbally administered to the subject by the Investigator, or designee. The RAND 36 was an instrument that measured general health issues. Study staff directed subjects to complete the RAND 36 on their own. […] No family members or other individuals were allowed to answer questions or complete the questionnaire for the subject. All questionnaires were completed directly on the written source document pages. The study coordinator reviewed all questionnaires to ensure that there was only one response to each question, each question has been answered and any necessary corrections have been initialed and dated by the Investigator (or designee) or subject, accordingly.
# [3] = tested on: subjects with PAD; remark: listed apart in the source
# Excerpt: An individual subject was withdrawn at the discretion of the responsible investigator and the site study team for the reasons listed below as well as for other safety reasons that may not be listed. In the event one or more subjects were withdrawn, additional subjects were enrolled to ensure an adequate number of subjects complete the cohort. Specific reasons for an individual subject to withdraw included but was not limited to: • Subjects with a pattern of severe adverse events in any SOC, or cardiac monitoring findings as determined by the investigator and/or the sponsor. • Subjects with methemoglobin value 15% on any one occasion during study participation. • Subjects with normal baseline blood pressure who experienced any of the following: an increase in blood pressure to 160 mm Hg systolic and/or 90 mmHg diastolic that persists over 24 hours, an increase from baseline blood pressure of 30 mm Hg systolic and/or 15 mm Hg diastolic that persists over 24 hours, any symptomatic increase in blood pressure. • Subjects with stable elevated blood pressure at baseline who experienced any of the following: an increase in blood pressure to 180 mm Hg systolic and/or 100 mmHg diastolic that persists over 24 hours, an increase from baseline blood pressure of 20 mm Hg systolic and/or 10 mm Hg diastolic that persists over 24 hours, any symptomatic increase in blood pressure. • Subjects who experienced a decrease from baseline blood pressure of 20 mm Hg systolic with or without an increase of 10 beats per minute (BPM) pulse and the presence of symptoms.
# The withdrawal criteria allowed a subject to withdraw from the study at any time at his/her own request. The subject may also have been withdrawn at the Investigator's request if it was the Investigator's opinion that it was not in the subject's best interest to continue in the study. The subject was withdrawn if he or she met stopping criteria described above. In the event a subject was withdrawn from the study for any reason, the subject was followed-up with reasonable effort made to determine the reason for their withdrawal from the study and an ET visit as described above. Telephone calls, certified letters and offers of transportation assistance were considered reasonable effort.
# [4] = Six-Day Dose-Escalation Period Only, 40 mg group (escalated to 80 mg BID)
# [5] = Six-Day Dose-Escalation Period Only, 80 mg group (escalated to 160 mg BID)
smiles,measurement,setting,value
O=NO [sodium nitrite],Number of TEAEs by Relationship to Study Drug: Not Related,[1]; 40 mg BID,10
same,Number of TEAEs by Relationship to Study Drug: Possibly Related,[1]; 40 mg BID,22
same,Number of TEAEs by Relationship to Study Drug: Probably Related,[1]; 40 mg BID,0
same,Number of TEAEs by Severity: Mild,[1]; 40 mg BID,26
same,Number of TEAEs by Severity: Moderate,[1]; 40 mg BID,6
same,Number of TEAEs by Relationship to Study Drug: Not Related,[1]; 80 mg BID,9
same,Number of TEAEs by Relationship to Study Drug: Possibly Related,[1]; 80 mg BID,24
same,Number of TEAEs by Relationship to Study Drug: Probably Related,[1]; 80 mg BID,6
same,Number of TEAEs by Severity: Mild,[1]; 80 mg BID,31
same,Number of TEAEs by Severity: Moderate,[1]; 80 mg BID,8
same,Number (%) of Subjects with at least one AE,"[1]; Overall, 40 mg BID",12(63.2%)
same,Number (%) of Subjects with at least one TEAE,"[1]; Overall, 40 mg BID",12(63.2%)
same,Number of AEs,"[1]; Overall, 40 mg BID",32
same,Number of SAEs,"[1]; Overall, 40 mg BID",0
same,Number of TEAEs,"[1]; Overall, 40 mg BID",32
same,Number (%) of Subjects with at least one AE,"[1]; Overall, 80 mg BID",14(7738%)
same,Number (%) of Subjects with at least one TEAE,"[1]; Overall, 80 mg BID",14(7738%)
same,Number of AEs,"[1]; Overall, 80 mg BID",40
same,Number of SAEs,"[1]; Overall, 80 mg BID",0
same,Number of TEAEs,"[1]; Overall, 80 mg BID",39
same,Number (5) of Subjects with at least one TEAE,[1]; [4],3(15.8%)
same,Number of TEAEs,[1]; [4],3
same,Number (5) of Subjects with at least one TEAE,[1]; [5],7(38.9%)
same,Number of TEAEs,[1]; [5],11
same,Severe adverse effects,[1]; treated groups overall,no severe adverse effects were observed
same,WIQ assessment in walking distance,[2],no change
same,WIQ stair climbing,[2],trend toward improvement
same,WIQ walking speed,[2],trend toward improvement
same,RAND 36 quality of life assessment,[2]; sentence names the 40 mg group,trend toward improvement
same,Subjects who completed the study,"[3]; 40 mg, n = 19",17 (89.5%)
same,Subjects who withdrew prior to completion,"[3]; 40 mg, n = 19",2 (10.5%)
same,Withdrawal: Adverse Event,"[3]; 40 mg, n = 19",1 (5.3%)
same,Withdrawal: Met withdrawal-new hypotension,"[3]; 40 mg, n = 19",0 (0.0%)
same,Withdrawal: Subject Request-lack of energy,"[3]; 40 mg, n = 19",1 (5.3%)
same,Withdrawal: Subject request- no benefit,"[3]; 40 mg, n = 19",0 (0.0%)
same,Withdrawal: Subject request-refused to continue,"[3]; 40 mg, n = 19",0 (0.0%)
same,Subjects who completed the study,"[3]; 80 mg, n = 18",15 (83.3%)
same,Subjects who withdrew prior to completion,"[3]; 80 mg, n = 18",3 (16.7%)
same,Withdrawal: Adverse Event,"[3]; 80 mg, n = 18",2 (11.1%)
same,Withdrawal: Met withdrawal-new hypotension,"[3]; 80 mg, n = 18",1 (5.6%)
same,Withdrawal: Subject Request-lack of energy,"[3]; 80 mg, n = 18",0 (0.0%)
same,Withdrawal: Subject request- no benefit,"[3]; 80 mg, n = 18",0 (0.0%)
same,Withdrawal: Subject request-refused to continue,"[3]; 80 mg, n = 18",0 (0.0%)
